Results: US6686469B2, “Pesticidal pyrimidine-derivatives” (Novartis Animal Health US, Inc., priority 1999, dated 2004)

Test system: Heliothis virescens
Experiment: Activity against Heliothis virescens
Type: in vivo
Conditions: young soya plants sprayed with 100 ppm active ingredient, first-stage caterpillars, 6 days later
Experimental: Young soya plants are sprayed with an aqueous emulsion spray mixture containing 100 ppm of active ingredient, when the spray coating has dried on they are colonised with 10 caterpillars of the first stage of Heliothis virescens and then placed in a plastic container. The percentage reduction of the population and of the feeding damage (% response) is determined 6 days later by comparing the total number of dead caterpillars and the feeding damage on the treated plants with those on the untreated plants.

Compound	efficacy: percentage reduction of the population and of the feeding damage (% response)
Fc1cccc(Cl)c1-c1ncc(-c2ccc(-c3ccc(C(F)(F)F)cc3)cc2)cn1 [Compound 1.17]	over 80%

Test system: not given
Experiment: not given
Conditions: not given

Compound	melting point [°C]
Fc1cccc(F)c1-c1ncc(-c2ccc(-c3ccc(C(F)(F)F)cc3)cc2)cn1 [Compound 1.2]	252 to 254
FC(F)(F)c1ccc(-c2ccc(-c3cnc(-c4c(Cl)cccc4Cl)nc3)cc2)cc1 [Compound 1.3]	207 to 208
FC(F)(F)Oc1ccc(-c2ccc(-c3cnc(-c4c(Cl)cccc4Cl)nc3)cc2)cc1 [Compound 1.4]	179 to 181
Clc1ccc(-c2ccc(-c3cnc(-c4c(Cl)cccc4Cl)nc3)cc2)cc1Cl [Compound 1.6]	224 to 226
COc1ccc(-c2ccc(-c3cnc(-c4c(Cl)cccc4Cl)nc3)cc2)cc1 [Compound 1.7]	242 to 244
Clc1ccc(-c2ccc(-c3cnc(-c4c(Cl)cccc4Cl)nc3)cc2)cc1 [Compound 1.8]	205 to 220
Clc1cc(Cl)cc(-c2ccc(-c3cnc(-c4c(Cl)cccc4Cl)nc3)cc2)c1 [Compound 1.9]	> 220
CC(C)(C)c1ccc(-c2ccc(-c3cnc(-c4c(Cl)cccc4Cl)nc3)cc2)cc1 [Compound 1.10]	200 to 202
Fc1ccc(-c2ccc(-c3cnc(-c4c(F)cccc4Cl)nc3)cc2)cc1Cl [Compound 1.11]	186 to 189
Fc1cccc(Cl)c1-c1ncc(-c2ccc(-c3ccc(OC(F)(F)F)cc3)cc2)cn1 [Compound 1.12]	160 to 163
Fc1cccc(Cl)c1-c1ncc(-c2ccc(-c3ccc(Cl)c(Cl)c3)cc2)cn1 [Compound 1.13]	196 to 199
Fc1cccc(Cl)c1-c1ncc(-c2ccc(-c3cccc(C(F)(F)F)c3)cc2)cn1 [Compound 1.14]	187 to 190
COc1ccc(-c2ccc(-c3cnc(-c4c(F)cccc4Cl)nc3)cc2)cc1 [Compound 1.15]	176 to 179
Fc1cccc(F)c1-c1ncc(-c2ccc(-c3cccc(C(F)(F)F)c3)cc2)cn1 [Compound 1.18]	217 to 218
Fc1cccc(F)c1-c1ncc(-c2ccc(-c3ccc(OC(F)(F)F)cc3)cc2)cn1 [Compound 1.19, 2-(2,6-difluorophenyl)-5-(4′-trifluoromethoxybiphenyl-4-yl)-pyrimidine]	215 to 216
COc1ccccc1-c1ccc(-c2cnc(-c3c(F)cccc3F)nc2)cc1 [Compound 1.20]	150 to 151
Fc1cccc(F)c1-c1ncc(-c2ccc(-c3ccc(-c4ccccc4)cc3)cc2)cn1 [Compound 1.22]	> 260
Fc1ccc(-c2ccc(-c3cnc(-c4c(F)cccc4F)nc3)cc2)cc1 [Compound 1.23]	212 to 213
Fc1cccc(F)c1-c1ncc(-c2ccc(-c3ccccc3C(F)(F)F)cc2)cn1 [Compound 1.24]	100 to 102
Fc1cccc(F)c1-c1ncc(-c2ccc(-c3ccc(Cl)cc3)cc2)cn1 [Compound 1.25]	220 to 222
Fc1cccc(F)c1-c1ncc(-c2ccc(-c3cccc(Cl)c3)cc2)cn1 [Compound 1.37]	178 to 179
CCOc1nc(-c2c(F)cccc2F)ncc1-c1ccc(-c2ccc(OC(F)(F)F)cc2)cc1 [Compound 1.58]	146 to 147
CCOc1nc(-c2c(F)cccc2F)ncc1-c1ccc(-c2ccc(C(F)(F)F)cc2)cc1 [Compound 1.59]	170 to 172
CCOc1nc(-c2c(F)cccc2F)ncc1-c1ccc(-c2cc(Cl)cc(Cl)c2)cc1 [Compound 1.60]	154 to 155

Compound	melting point [°C]
CCNc1nc(-c2c(F)cccc2F)ncc1-c1ccc(-c2ccc(C(F)(F)F)cc2)cc1 [Compound 1.67]	189 to 190
CCNc1nc(-c2c(F)cccc2F)ncc1-c1ccc(-c2cc(Cl)cc(Cl)c2)cc1 [Compound 1.68]	202 to 203
CN(C)c1nc(-c2c(F)cccc2F)ncc1-c1ccc(-c2ccc(OC(F)(F)F)cc2)cc1 [Compound 1.69]	146 to 147
CN(C)c1nc(-c2c(F)cccc2F)ncc1-c1ccc(-c2ccc(C(F)(F)F)cc2)cc1 [Compound 1.70]	166 to 168
CN(C)c1nc(-c2c(F)cccc2F)ncc1-c1ccc(-c2cc(Cl)cc(Cl)c2)cc1 [Compound 1.71]	200 to 202
CCSc1nc(-c2c(F)cccc2F)ncc1-c1ccc(-c2ccc(OC(F)(F)F)cc2)cc1 [Compound 1.72]	127 to 128
CCSc1nc(-c2c(F)cccc2F)ncc1-c1ccc(-c2ccc(C(F)(F)F)cc2)cc1 [Compound 1.73]	145 to 146
CCSc1nc(-c2c(F)cccc2F)ncc1-c1ccc(-c2cc(Cl)cc(Cl)c2)cc1 [Compound 1.74]	154 to 156
Fc1ccc(-c2ccc(-c3ccnc(-c4c(F)cccc4F)n3)cc2)cc1Cl [Compound 2.1]	133 to 134
Fc1cccc(F)c1-c1nccc(-c2ccc(-c3ccc(C(F)(F)F)cc3)cc2)n1 [Compound 2.2, 2-(2,6-difluorophenyl)-4-(4′-trifluoromethylbiphenyl-4-yl)-pyrimidine]	141 to 142
Fc1cccc(F)c1-c1nccc(-c2ccc(-c3ccc(OC(F)(F)F)cc3)cc2)n1 [Compound 2.3]	102 to 103
Fc1cccc(F)c1-c1nccc(-c2ccc(-c3cc(Cl)cc(Cl)c3)cc2)n1 [Compound 2.5]	116 to 126
Fc1cccc(F)c1-c1nccc(-c2ccc(-c3ccc(Cl)c(Cl)c3)cc2)n1 [Compound 2.6]	134 to 140
Fc1cccc(F)c1-c1nccc(-c2ccc(-c3ccc(-c4ccccc4)cc3)cc2)n1 [Compound 2.7]	258 to 259
Fc1ccc(-c2ccc(-c3ccnc(-c4c(F)cccc4F)n3)cc2)cc1 [Compound 2.8]	145 to 146
Fc1cccc(F)c1-c1nccc(-c2ccc(-c3ccc(Cl)cc3Cl)cc2)n1 [Compound 2.9]	86 to 87
Fc1cccc(F)c1-c1nccc(-c2ccc(-c3cccc(Cl)c3)cc2)n1 [Compound 2.10]	82 to 83
Fc1cccc(F)c1-c1nccc(-c2ccc(-c3ccc(Cl)cc3)cc2)n1 [Compound 2.11]	167 to 168
Fc1cccc(F)c1-c1nccc(-c2ccc(-c3ccccc3C(F)(F)F)cc2)n1 [Compound 2.12]	179 to 180
Fc1cccc(F)c1C1N=CC=C(c2ccc(Br)cc2)N1Cl (stereo not drawn) [Compound 3.354, 4-(4-bromophenyl)-2-(2,6-difluorophenyl)-3-chloropyrimidine]	146 to 148
N#CN1C(c2ccc(Br)cc2)=CC=NC1c1c(F)cccc1F (stereo not drawn) [Compound 3.355, 4-(4-bromophenyl)-3-cyano-2-(2,6-difluorophenyl)-pyrimidine]	146 to 148
Fc1cccc(F)c1-c1ncc(-c2ccc(Br)cc2)cn1 [Compound P1.3, 5-(4-bromophenyl)-2-(2,6-difluorophenyl)-pyrimidine]	193 to 194
Fc1cccc(F)c1-c1nccc(-c2ccc(Br)cc2)n1 [Compound P1.5, 4-(4-bromophenyl)-2-(2,6-difluorophenyl)-pyrimidine]	130 to 131
